Assay results reported in patent publication US10308631B2, “Selective anti-cancer compounds” (NATIONAL UNIVERSITY OF SINGAPORE, priority 2015, dated 2019).

Columns and labels:
Format in all cases: cell-based, human
[1] = test system: non-transformed BJ cells depleted of p53 by shRNA-mediated knockdown; test: BrdU incorporation and FACS analysis (cell cycle arrest), p53 knockdown; conditions: 2.5 and 5 μM, 24 h
Description: A: is output from a FACS analysis of isogenic-non-transformed, without (panels a-c) (WT) or with (panels d-f) shRNA-mediated knockdown of p53 (p53KD), and oncogene-transformed BJ cells (panels g-i), each treated with 0, 5 or 2.5 μM Compound 1 (a131) for 24 h. Cells were doubly stained with PI (horizontal axis) and BrdU (vertical axis). The BrdU-positive population in panels a-c are indicated as arrows. B: is a diagrammatic representation of an immunoblot analysis showing isogenic non-transformed (normal) and oncogene-transformed BJ cells (transformed) treated with Compound 1 (a131) at 0, 2.5 or 5 μM for 24 h or 48 h. Cells were harvested and total lysates were analysed by detecting p53 and p21. Antibodies raised against β-actin were used as an internal loading control. C and D are histograms showing the percentage of bromodeoxyuracil (BrdU)-positive non-transformed (normal) BJ cells. C: Cells were treated with Group 1 Compound 1 (a131) at 2.5 and 5 μM, Compound 23 (b36) at 2.5 and 5 μM, and Compound 21 (b35) at 5 μM, and Group 2 Compound 25 (a166) at 2.5 and 5 μM, for 24 h. Cells were doubly stained with propidium iodide (PI) and BrdU, and subjected to FACS analysis. The BrdU-positive population are plotted as bars. […]

HeLa cells (LC3 puncta) = test: Immunofluorescence analysis of LC3 puncta; conditions: 2.5 μM, 6 h
Description: HeLa cells, treated with either Compound 1 (a131) at 2.5 μM or DMSO for 6 h, were fixed in ice-cold methanol and subjected to immunofluorescence analysis using antibodies against LC3 and counterstained with diamidino-2-phenylindole (DAPI) to visualize the nucleus. The Merge boxes show both LC3 and DAPI staining. The bars represent 5 μm in length.
To confirm the results of the immunoblot analysis and the lysosome-mediated autophagy activity, HeLa cervical cancer cells as cultured above were treated with Compound 1 (2.5 μM, DMSO) or DMSO as a control for 6 h. The treated cells were fixed in ice-cold methanol and subjected to immunofluorescence analysis using antibodies against LC3 and counterstained with diamidino-2-phenylindole (DAPI) to visualize the nucleus.

[2] = test system: oncogene-transformed BJ cells; test: Time-lapsed live cell analysis of mitotic progression (GFP-Histone H2B); conditions: 2.5 μM, monitored every 10 min
Description: (§1) A: is a histogram showing isogenic non-transformed and oncogene-transformed BJ cells stably expressing GFP-tagged Histone H2B as a marker for chromosome segregation, treated with Compound 1 (a131) at 2.5 μM final concentration. Mitotic progression of these cells was monitored every 10 min. More than 100 cells per condition were quantified and classified into 3 groups: no, mild and severe mitotic defects with prolonged mitotic arrest, chromosome mis-segregation and failure in cytokinesis. […] The bars represent 5 μm in length. C: is a histogram showing quantification of defects in spindle formation and chromosome alignments (n>100 cells per condition).
(§2) Isogenic non-transformed and oncogene-transformed BJ cells stably expressing GFP-tagged Histone H2B as a marker for chromosome segregation were treated with Compound 1 at 2.5 μM final concentration. Mitotic progression of these cells was monitored every 10 min and images were acquired using a Super Resolution Microscope (Nikon) equipped with an iXon EM+ 885 EMCCD camera (Andor) mounted on a Nikon Eclipse Ti-E inverted microscope with a CFI Apo objective and a Stage Top Incubation with Digital CO2 mixer (Tokai). The images were processed with the NIS-Elements AR software. […]

[3] = test system: non-transformed normal BJ cells; test: as above; conditions: 2.5 μM, monitored every 10 min
Description: as §1, §2

## N#C/C(=C\c1cccc2cnccc12)c1c[nH]c2ccccc12 [Compound 1, (Z)-2-(1H-indol-3-yl)-3-(isoquinolin-5-yl)acrylonitrile]
[1]
  cell cycle arrest in p53-depleted cells: ability of Compound 1 to induce cell cycle arrest was compromised
HeLa cells (LC3 puncta)
  LC3 puncta formation: increased LC3 puncta formation
[2]
  mitotic defects: severe mitotic defects with prolonged mitotic arrest, chromosome mis-segregations and failure in cytokinesis
[3]
  mitotic defects: only induced a short period of mitotic arrest with mild mitotic defects
